Assay [1] deals with T1, constitutively active mutant human 5HT2C receptor AP-1 (Homo sapiens, UniProt P28335, S310K).
T1 sequence (P28335 33-458 S310K): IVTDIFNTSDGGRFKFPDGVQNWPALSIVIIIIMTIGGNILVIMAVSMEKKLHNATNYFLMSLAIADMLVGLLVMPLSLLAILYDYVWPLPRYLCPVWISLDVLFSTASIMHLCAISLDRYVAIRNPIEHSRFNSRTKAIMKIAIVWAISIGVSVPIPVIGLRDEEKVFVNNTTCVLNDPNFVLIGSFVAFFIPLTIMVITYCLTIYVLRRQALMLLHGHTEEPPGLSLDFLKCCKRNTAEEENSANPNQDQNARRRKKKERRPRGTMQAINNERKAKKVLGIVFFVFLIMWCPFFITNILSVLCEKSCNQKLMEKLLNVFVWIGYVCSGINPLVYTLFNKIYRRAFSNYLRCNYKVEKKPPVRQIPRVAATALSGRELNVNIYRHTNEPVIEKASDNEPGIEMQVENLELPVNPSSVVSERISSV
As to the kind of experiment: [35S]GTPγS binding assay, constitutively active mutant human 5HT2C receptor AP-1. It is filed as biochemical. In general terms: GTPγS resists hydrolysis and so accumulates on activated G proteins.

Assay [2] relates to human mutated 5HT2A receptor, AP-3. Put plainly: Inositol phosphate (IP3) accumulation assay, AP-3. The settings on record: preferred compounds tables (μM). Type of assay: cell-based.
Assay [3] deals with 5HT2A receptor (cerebral cortex). As to the kind of experiment: I125-LSD displacement from rat brain sections, cerebral cortex (5HT2A). Type of assay: binding, Sprague-Dawley rats. The settings on record: 1 micromolar compound, 1 nanomolar I125-LSD, 30 minutes room temperature.
The test system of assay [4] is Adult male Sprague-Dawley rats. As to the kind of experiment: Amphetamine-stimulated locomotor activity in rats. Type of assay: in vivo. From the text:
A 5HT2A receptor antagonist or inverse agonist is expected to decrease amphetamine-stimulated locomotion without affecting baseline locomotion. See, for example, Soresnon, et al, 266(2) J. Pharmacol. Exp. Ther. 684 (1993). […] For the following study, the following parameters and protocol were utilized:
Adult male Sprague-Dawley rats were utilized for these studies. Animals were housed in groups of 2-3 in hanging plastic cages with food and water available at all times. Animals were weighed and handled for at least one day prior to surgery and throughout the studies. For these studies, Vehicle consisted of 90% ethanol (100%) and 10% water.
A San Diego Instruments Flex Field apparatus was used to quantify baseline and amphetamine-stimulated locomotor activity. This apparatus consists of four 16"×16" clear plastic open fields. Photocell arrays (16 in each dimension) interfaced with a personal computer to automatically quantify activity. Several measures of activity can be assessed with the apparatus, including total photocell beam breaks. Animals (vehicle control and Compound treated) were injected s.c. 30 minutes prior to initiation of analysis. Following this 30 minute period, animals were placed individually into an open field and baseline activity was assessed for 30 minutes (habituation phase). […]

The target of assay [5] is T2, Wild Type Human 5HT2A Receptor (Homo sapiens, UniProt P28223).
T2 construct: expressed in transfected cells; host or cells: COS-7 cells, transient transfection (pCMV); membranes
T2 sequence (P28223 whole entry T25N/H452Y): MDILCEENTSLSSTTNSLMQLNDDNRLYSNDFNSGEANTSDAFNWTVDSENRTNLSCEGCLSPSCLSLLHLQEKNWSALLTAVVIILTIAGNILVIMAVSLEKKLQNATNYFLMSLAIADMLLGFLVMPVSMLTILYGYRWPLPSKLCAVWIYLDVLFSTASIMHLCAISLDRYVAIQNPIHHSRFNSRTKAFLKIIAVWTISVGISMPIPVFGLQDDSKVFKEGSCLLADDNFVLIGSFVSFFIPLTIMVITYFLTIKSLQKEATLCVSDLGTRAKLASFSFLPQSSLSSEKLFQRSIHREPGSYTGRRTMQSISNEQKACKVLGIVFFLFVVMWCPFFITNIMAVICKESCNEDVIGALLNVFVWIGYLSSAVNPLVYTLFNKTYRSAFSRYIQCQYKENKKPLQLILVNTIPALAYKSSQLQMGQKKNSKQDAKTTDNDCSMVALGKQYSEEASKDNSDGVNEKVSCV
As to the kind of experiment: [3H]LSD competitive binding assay, wild type 5HT2A.

Assay [6] has as its target T3, endogenous human 5-HT2C receptor (Homo sapiens, UniProt P28335).
T3 sequence (P28335 33-458): T1 sequence (P28335 33-458 S310K) with K278S

As a reminder, the inhibition is the drop in the measured response relative to a control, in per cent. One may read the IC50 as the concentration that inhibits the measured activity by half.

The structures appear in SMILES notation. Changes are numbered by the printed parent chain. Where two headings read alike, the source gives them in different places.

For `Cn1cc(Br)c(-c2cccc(NC(=O)Nc3ccc(OC(F)(F)F)cc3)c2)n1` [Compound 103487, N-[3-(4-bromo-1-methylpyrazol-3-yl)phenyl][{(4-trifluoromethoxy)phenyl}amino]carboxamide], the results for the inhibition at 10 µM in assay [1] (read-out: GTPγS AP-1 Percent Inhibition Relative To Positive Control (Primary)) and in assay [1] (read-out: GTPγS AP-1 Percent Inhibition Relative To Positive Control (Reconfirm)) were -1% and 31%, respectively.
`COc1ccc(OC(=O)Nc2cccc(-c3nn(C)cc3Br)c2)cc1` [Compound 116100, N-[3-(4-bromo-1-methylpyrazol-3-yl)phenyl][4-methoxyphenoxy]carboxamide] showed a 50% inhibitory concentration (IC50) in assay [2] of 0.0003 µM. Also, the “displacement of I125-LSD from cortex” value in assay [3] is listed as “selectively displace the I^125 -LSD from the cortex (5HT2A)”.
Consider `Cn1cc(Br)c(-c2cccc(NC(=O)c3cccs3)c2)n1` [Compound 116102, N-[3-(4-bromo-1-methylpyrazol-3-yl)phenyl][2-thienyl]carboxamide], for which the amphetamine-stimulated locomotion result in assay [4] (s.c., 0.1, 1.0, 5.0, 10.0 mg/kg, d-amphetamine sulfate 1.0 mg/kg, photobeam breaks) is “with exception of the highest dose (10 mg/kg), in vivo, the tested doses of Compound 116102 evidenced a decrease in the amphetamine-stimulated locomotion”. The “dose-response pattern of locomotor activity” value in assay [4] (s.c., 0.1-10.0 mg/kg, FIGS. 17A-C) is reported as “"inverted U" shaped pattern”.
In turn, `CC(C)c1ccc(NC(=O)Nc2cccc(-c3nn(C)cc3Br)c2)cc1` [Compound 116110, {[3-(4-bromo-1-methylpyrazol-3-yl)phenyl]amino}-N-[4-(methylethyl)phenyl]carboxamide] gave an IC50 in assay [5] of 338 nM.
`Cn1cc(Br)c(-c2cccc(NC(=O)OC(C)(C)C)c2)n1` [Compound 116192] gave a half-maximal inhibitory concentration (IC50) in assay [2] of 0.057 µM.
Compound `CSc1ccc2c(c1)C(N1CCN(C)CC1)Cc1ccccc1S2` (stereo not shown) [Methiothepin] yielded a concentration for half-maximal inhibition (IC50) in assay [1] of 20.4 nM.
On the same count and under the same terms, next, `Clc1ccc2c(c1)N=C(N1CCNCC1)c1ccccc1N2` [Normethylclozapin]: 21.4 nM.
As for `CN1CCN2c3ccccc3Cc3ccccc3C2C1` (stereo not shown) [mianserin], the “[35S]GTPγS binding, serotonin stimulation and inhibition by mianserin” value in assay [1] (FIG. 10, AP-1 receptors in 293T cells, mianserin 30 μM, Wallac scintistrips) was “inhibition”. In addition, in assay [6] (30 μM (FIG. 9), FIG. 10 on Wallac scintistrips), the “inhibition of serotonin-stimulated [35S]GTPγS binding” value was “inhibits this response”. Further, the “effect on basal constitutive [35S]GTPγS binding” value in assay [6] (FIG. 10, membranes expressing endogenous human 5-HT2C receptor) was “partial inverse agonist”.

(Values after patent publication US6107324A, “5-HT2A receptor inverse agonists” (priority 1999, dated 2000).)
